Pest or weed control, inhibition of growth and melting point data for ten compounds are collected here from US20200022370A1, “MICROBIOCIDAL OXADIAZOLE DERIVATIVES” (SYNGENTA PARTICIPATIONS AG, priority 2016, published 2020).

Some results are limits rather than exact numbers.

Data set [1] deals with Phakopsora pachyrhizi. The experiment in a line: Phakopsora pachyrhizi / soybean / leaf disc preventative (Asian soybean rust). Type of data set: in vivo. Particulars: foliar, 200 ppm in the applied formulation, soybean leaf disks, inoculated one day after application, vs untreated, 12 to 14 days after application, read-out: disease control. The method in brief: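 Soybean leaf discs on water agar sprayed with formulated compound diluted in water, then inoculated one day later with spore suspension on the lower surface. Held 24-36 h dark at 20 °C, 75% rh, then 12 h light/day; percent disease control versus untreated scored 12-14 days after application.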

Data set [2] has as its system Glomerella lacenarium (Colletotrichum lacenarium). The experiment in a line: Glomerella lacenarium (Colletotrichum lacenarium) liquid culture / cucumber / preventative (anthracnose). It counts as cell-based. Conditions: 20 ppm, liquid culture in PDB, 24° C., inhibition of growth measured photometrically 3 to 4 days after application, vs untreated, read-out: disease control. The gist of the method:
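Cryopreserved conidia in potato dextrose broth were added to test compound in a 96-well microtiter plate and incubated at 24 °C. Growth inhibition read photometrically 3–4 days after application, as percent activity versus untreated check.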

Data set [3] relates to Uromyces viciae-fabae. The experiment in a line: Uromyces viciae-fabae / field bean / leaf disc preventative (faba-bean rust). Particulars: foliar, 288 h, 100 ppm in the applied formulation, field bean leaf discs, inoculated two hours after application, vs untreated, 12 days after application, read-out: disease control. It counts as in vivo. The method in brief: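 Field bean leaf discs on water agar received formulated compound (in acetone with spreader), then were spray-inoculated with spores on the lower surface 2 h later. Discs were kept at 22 °C, 18 h day, 70% RH. Percent disease control versus untreated discs was scored 12 days after application.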

Data set [4] concerns Puccinia recondita f. Sp. Tritici. The experiment in a line: Puccinia recondita f. sp. tritici / wheat / leaf disc preventative (brown rust). Type of data set: in vivo. Particulars: foliar, 200 ppm in the applied formulation, wheat leaf segments cv. Kanzler, inoculated 1 day after application, vs untreated, 7 to 9 days after application, read-out: disease control. The method in brief:
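Segments of cv. Kanzler wheat on agar received a spray of compound formulation diluted in water and were inoculated with spores one day afterwards. Kept at 19° C and 75% rh under 12 h/12 h light; disease control relative to untreated checks rated at 7–9 days post-application.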

The test system is the same in data set [5]. The experiment in a line: Puccinia recondita f. sp. tritici / wheat / leaf disc curative (brown rust). It counts as in vivo. Particulars: foliar, 200 ppm in the applied formulation, wheat leaf segments cv. Kanzler, compound applied 1 day after inoculation, vs untreated, 6 to 8 days after application, read-out: disease control. The gist of the method: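 Wheat leaf segments (cv. Kanzler) on agar inoculated with brown rust spores, held dark at 19 °C/75% RH, then sprayed 1 day post-inoculation with formulated compound diluted in water (curative). Incubated at 19 °C/75% RH, 12 h light/12 h dark; percent disease control versus untreated scored 6–8 days after application.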

Broadly, the melting point is the temperature, or range, at which the solid turns liquid.

`O=C(Nc1ccc(-c2noc(C(F)(F)F)n2)cc1)c1ccccc1C(F)(F)F` [Compound 1.1, 2-(trifluoromethyl)-N-[4-[5-(trifluoromethyl)-1,2,4-oxadiazol-3-yl]phenyl]benzamide] registered a melting point of 162 to 163 °C. Besides, the pest or weed control at 200 ppm in data set [1] is at least 80%. Also, the inhibition of growth at 20 ppm in data set [2] was at least 80%. The pest or weed control at 100 ppm in data set [3] was at least 80%.
In the case of `O=C(Nc1ccc(-c2noc(C(F)(F)F)n2)cc1)c1cn[nH]c1` [Compound 1.11, N-[4-[5-(trifluoromethyl)-1,2,4-oxadiazol-3-yl]phenyl]-1H-pyrazole-4-carboxamide], the melting point lay in the range of 200 to 204 °C. Further, the pest or weed control at 100 ppm in data set [3] is at least 80%.
In turn, `O=C(Nc1ccc(-c2noc(C(F)(F)F)n2)cc1)C1CCCO1` (stereo not shown) [Compound 1.41, N-[4-[5-(trifluoromethyl)-1,2,4-oxadiazol-3-yl]phenyl] tetrahydrofuran-2-carboxamide] returned a melting point of 115 to 120 °C. Besides, the pest or weed control at 200 ppm in data set [4] is at least 80%. Besides, the pest or weed control at 200 ppm in data set [5] was at least 80%. Moreover, the pest or weed control at 200 ppm in data set [1] was at least 80%. In addition, the inhibition of growth at 20 ppm in data set [2] is at least 80%. Moreover, the pest or weed control at 100 ppm in data set [3] was at least 80%.
`O=C(Nc1ccc(-c2noc(C(F)(F)F)n2)cn1)c1ccccc1` [Compound 1.46, N-[5-[5-(trifluoromethyl)-1,2,4-oxadiazol-3-yl]-2-pyridyl]benzamide] had a melting point of 172.8 to 174.3 °C. For the same compound, in data set [1], the pest or weed control at 200 ppm is at least 80%. The pest or weed control at 100 ppm in data set [3] is at least 80%.
`CC(C)(C)NC(=O)CN(C(=O)C1CC1)c1ccc(-c2noc(C(F)(F)F)n2)cc1` [Compound 1.60, N-[2-(tert-butylamino)-2-oxo-ethyl]-N-[4-[5-(trifluoromethyl)-1,2,4-oxadiazol-3-yl]phenyl]cyclopro-panecarboxamide] displayed a melting point of 110 to 112 °C. For the same compound, the inhibition of growth at 20 ppm in data set [2] was at least 80%. The pest or weed control at 100 ppm in data set [3] is at least 80%.
In turn, `COCC(=O)N(c1ccc(-c2noc(C(F)(F)F)n2)cc1)C(C)C(=O)NC(C)(C)C` (stereo not shown) [Compound 1.62, N-tert-butyl-2-[N-(2-methoxyacetyl)-4-[5-(trifluoromethyl)-1,2,4-oxadiazol-3-yl]anilino] propanamide] gave a melting point of 115 to 117 °C. Besides, the pest or weed control at 100 ppm in data set [3] was at least 80%.
The compound `COCC(=O)Nc1ccc(-c2noc(C(F)(F)F)n2)cc1` [Compound 2.1, 2-methoxy-N-[4-[5-(trifluoromethyl)-1,2,4-oxadiazol-3-yl]phenyl]acetamide] had a melting point of 93 to 94 °C. Besides, the pest or weed control at 200 ppm in data set [4] is at least 80%. Moreover, the pest or weed control at 200 ppm in data set [5] was at least 80%. Further, the pest or weed control at 200 ppm in data set [1] is at least 80%. In addition, the inhibition of growth at 20 ppm in data set [2] was at least 80%. The pest or weed control at 100 ppm in data set [3] was at least 80%.
`O=C(Nc1ccc(-c2noc(C(F)(F)F)n2)cc1)C(F)(F)F` [Compound 2.2, 2,2,2-trifluoro-N-[4-[5-(trifluoromethyl)-1,2,4-oxadiazol-3-yl]phenyl]acetamide] came in with a melting point of 146 to 147 °C. The inhibition of growth at 20 ppm in data set [2] was at least 80%. Also, the pest or weed control at 100 ppm in data set [3] is at least 80%.
Compound `C=CCONC(=O)Nc1ccc(-c2noc(C(F)(F)F)n2)cc1` [Compound 2.3, 1-allyloxy-3-[4-[5-(trifluoromethyl)-1,2,4-oxadiazol-3-yl]phenyl]urea] displayed a melting point of 124 to 127 °C. For the same compound, in data set [4], the pest or weed control at 200 ppm was at least 80%. In addition, in data set [5], the pest or weed control at 200 ppm was at least 80%. In data set [1], the pest or weed control at 200 ppm was at least 80%. Also, in data set [2], the inhibition of growth at 20 ppm was at least 80%. Also, the pest or weed control at 100 ppm in data set [3] is at least 80%.
On to `O=C(Nc1ccc(-c2noc(C(F)(F)F)n2)cc1)N1CCCCO1` [Compound 2.23, N-[4-[5-(trifluoromethyl)-1,2,4-oxadiazol-3-yl]phenyl]oxazinane-2-carboxamide], for which the melting point lay in the range of 117 to 120 °C. Besides, the pest or weed control at 200 ppm in data set [4] was at least 80%. Besides, the pest or weed control at 200 ppm in data set [5] was at least 80%. Besides, the pest or weed control at 200 ppm in data set [1] is at least 80%. The inhibition of growth at 20 ppm in data set [2] was at least 80%.
